Earlier results on three molecules are cited in US20070025945A1, “Stabilized pharmaceutical and cosmetic composition of catechins or derivatives thereof” (Anagen Therapeutics, Inc., priority 2005, published 2007).

Data set [1] concerns sebum production. To be noted: topical application directly to the forehead.
The test system of data set [2] is 5-alpha-reductase isozyme I / isozyme II. To be noted: 5-alpha-reductase isozymes.
Data set [3] relates to teleocidin-induced tumor promotion. To be noted: topically applied to skin; mice previously initiated with DMBA.

`CCCCC/C=C\C/C=C\C/C=C\CCCCC(=O)O` [gamma-linolenic acid]: the “sebum production from the human forehead” value in data set [1] was “inhibited”.

On to `O=C(O[C@@H]1Cc2c(O)cc(O)cc2O[C@@H]1c1cc(O)c(O)c(O)c1)c1cc(O)c(O)c(O)c1` [EGCG, (−)-epigallocatechin-3-gallates], for which the “activity against isozyme I versus isozyme II” value in data set [2] was “more active against isozyme I than isozyme II”. For the same molecule, the teleocidin-induced tumor promotion result in data set [3] is “inhibits”. In addition, in data set [1], the “sebum production from the human forehead” value is “inhibited”.

For `O=C(O[C@@H]1Cc2c(O)cc(O)cc2O[C@@H]1c1ccc(O)c(O)c1)c1cc(O)c(O)c(O)c1` [ECG, (−)-epicatechin-3-gallates], the “activity against isozyme I versus isozyme II” value in data set [2] is listed as “more active against isozyme I than isozyme II”.
